In ChEMBL document CHEMBL3045943, “Novel N-aryl(alkaryl)-2-[(3-R-2-oxo-2H-[1,2,4]triazino[2,3-c]quinazoline-6-yl)thio]acetamides: synthesis, cytotoxicity, anticancer activity, COMPARE analysis and docking” (2013):

How the values were obtained:
Format in all cases: functional
[1] = system: Photobacterium leiognathi; test: Growth inhibition of Photobacterium leiognathi Sh1 assessed as bio-luminescence at 0.1 mg/ml after 10 min by acute action test relative to control; design: scale not given: the % may be the effect or the level left
SNB-75 = test: Cytotoxicity against Homo sapiens (human) SNB75 cells assessed as cell growth at 10 uM after 48 hr by SRB assay relative to control; settings: SNB-75, 48 h, read-out: Activity
SNB-19 = test: Cytotoxicity against Homo sapiens (human) SNB19 cells assessed as cell growth at 10 uM after 48 hr by SRB assay relative to control; settings: SNB-19, 48 h, read-out: Activity
[2] = system: Photobacterium leiognathi; test: Growth inhibition of Photobacterium leiognathi Sh1 assessed as bio-luminescence at 0.25 mg/ml after 10 min by acute action test relative to control; design: scale not given: the % may be the effect or the level left
[3] = system: Photobacterium leiognathi; test: Growth inhibition of Photobacterium leiognathi Sh1 assessed as bio-luminescence at 0.025 mg/ml after 16 to 18 hr by chronic action test relative to control; design: scale not given: the % may be the effect or the level left
[4] = system: Photobacterium leiognathi; test: Growth inhibition of Photobacterium leiognathi Sh1 assessed as bio-luminescence at 0.25 mg/ml after 16 to 18 hr by chronic action test relative to control; design: scale not given: the % may be the effect or the level left
U-251 = test: Cytotoxicity against Homo sapiens (human) U251 cells assessed as cell growth at 10 uM after 48 hr by SRB assay relative to control; settings: U-251, 48 h, read-out: Activity
[5] = system: Photobacterium leiognathi; test: Growth inhibition of Photobacterium leiognathi Sh1 assessed as bio-luminescence at 0.1 mg/ml after 16 to 18 hr by chronic action test relative to control; design: scale not given: the % may be the effect or the level left
[6] = system: Photobacterium leiognathi; test: Growth inhibition of Photobacterium leiognathi Sh1 assessed as bio-luminescence at 0.025 mg/ml after 10 min by acute action test relative to control; design: scale not given: the % may be the effect or the level left

COc1ccc(-c2nn3c(SCC(=O)Nc4ccc(C)cc4)nc4ccccc4c3nc2=O)cc1
Activity [1]: 120%
growth at 10 µM (SNB-75): 55.9%
growth at 10 µM (SNB-19): 59%
Activity [2]: 146.7%
Activity [3]: 69.8%
Activity [4]: 27.3%
growth at 10 µM (U-251): 24.4%
Activity [5]: 76.8%
Activity [6]: 112.5%
